Target: T1, MhTHL (Megasphaera hexanoica, UniProt A0A848BQU5, C88S)
T1 construct: gene HF872_02440; tetramerization motif
Test: X-ray crystal structure, […] Å
Type: binding
Conditions: crystals soaked in 25 mM hexanoyl-CoA for 5 min, pH 7.5; the bound ligand is deacylated CoA; active site

T1 sequence (A0A848BQU5 entry or part of it C88S): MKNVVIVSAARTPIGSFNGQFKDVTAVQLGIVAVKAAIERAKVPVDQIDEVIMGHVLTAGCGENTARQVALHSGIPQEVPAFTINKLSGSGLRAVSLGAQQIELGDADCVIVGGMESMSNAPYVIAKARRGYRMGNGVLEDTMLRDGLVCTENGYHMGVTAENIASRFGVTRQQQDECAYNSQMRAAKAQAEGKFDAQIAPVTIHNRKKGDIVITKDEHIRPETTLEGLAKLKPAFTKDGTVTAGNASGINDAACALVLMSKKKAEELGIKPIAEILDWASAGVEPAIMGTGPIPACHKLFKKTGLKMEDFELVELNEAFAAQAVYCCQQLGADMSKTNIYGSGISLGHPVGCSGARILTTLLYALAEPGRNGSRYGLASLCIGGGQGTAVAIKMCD

CC(C)(COP(=O)(O)OP(=O)(O)OC[C@H]1O[C@@H](n2cnc3c(N)ncnc32)[C@H](O)[C@@H]1OP(=O)(O)O)[C@@H](O)C(=O)NCCC(=O)NCCS [CoA]
X-ray crystal structure, 1.64 Å: a deacylated CoA molecule was bound to MhTHL in the mF observed‐DF calculated electron density map

Reference: publication PMC12667485, “Molecular Chain Elongation Mechanism for n‐Caproate Biosynthesis by Megasphaera Hexanoica” (Advanced Science, 2025)
